{"source": "patent US20150283090A1", "about": "“USE OF SILICON OXIDE-BASED MATERIAL FOR THE MODIFIED RELEASE OF BIOLOGICALLY ACTIVE AGENTS” (MERCK PATENT GMBH, priority 2012, published 2015)", "origin": "cited, not measured here", "key": {"[1]": {"conditions": "C1 silylation of MCM-41"}, "[2]": {"conditions": "MCM-48 and LP-la3d, pore sizes 3.6 and 5.7 nm, modified with C8 and C18 hydrocarbon chains"}, "[3]": {"conditions": "silica hybrid gels with methyl or propyl functionalization"}}, "note": "Read-outs that look alike come from different tables or passages of the source."}
{"smiles": "C[C@H](CS)C(=O)N1CCC[C@H]1C(=O)O", "note": "[Captopril]", "values": [{"measurement": "release rate", "setting": "[1]", "result": "decrease of release rate of Captopril with increasing degree of C1 silylation"}]}
{"smiles": "CC(C)Cc1ccc(C(C)C(=O)O)cc1", "note": "(centres unmarked) [ibuprofen]", "values": [{"measurement": "delivery rates", "setting": "[2]", "result": "decrease of delivery rates when the surface of the material is modified"}]}
{"smiles": "OCCN(CCO)c1nc(N2CCCCC2)c2nc(N(CCO)CCO)nc(N3CCCCC3)c2n1", "note": "[persantin]", "values": [{"measurement": "drug release", "setting": "[3]", "result": "inhibition of drug release with an increasing number of methyl or propyl functionalization"}]}
{"smiles": "CN[C@H](CC(C)C)C(=O)N[C@H]1C(=O)N[C@@H](CC(N)=O)C(=O)N[C@H]2C(=O)N[C@H]3C(=O)N[C@H](C(=O)N[C@H](C(=O)O)c4cc(O)cc(O)c4-c4cc3ccc4O)[C@H](O)c3ccc(c(Cl)c3)Oc3cc2cc(c3O[C@@H]2O[C@H](CO)[C@@H](O)[C@H](O)[C@H]2O[C@H]2C[C@](C)(N)[C@H](O)[C@H](C)O2)Oc2ccc(cc2Cl)[C@H]1O", "note": "[vancomycin]", "values": [{"measurement": "release kinetics of vancomycin from SBA-15", "setting": "after functionalizing with octylmethoxysilane (C8)", "result": 0.068, "unit": "min-½"}, {"measurement": "release kinetics of vancomycin from SBA-15", "setting": "non-functionalized material", "result": 0.890, "unit": "min-½"}]}
